Results: US10676519B2, “Chimeric proteins and their use in identifying anti-deubiquitinase compounds” (The Florida State University Research Foundation, Inc., priority 2017, dated 2020)

Legend:
[1] = test system: counterscreen strain (yeast with UBP6 intact); test: DMSO tolerance of the counterscreen yeast strain, growth in microtiter plates; type: cell-based, Saccharomyces cerevisiae; details: counterscreen strain (FIG. 4B); concentrations of DMSO up to 1%; cell density monitored over 24 hours; sextuplicate
Source text: (§1) In baker's yeast (S. cerevisiae), deletion of the endogenous yeast Rpn11 gene is lethal, but inhibition of Rpn11 deubiquitinating activity is not. Inhibition of Rpn11 activity is lethal only when a second deubiquitinase, UBP6, is deleted (FIG. 2A). Importantly, this synthetic lethal relationship is maintained in yeast harboring hRpn11 (FIG. 3). Thus, a selective inhibitor of human Rpn11 would be lethal in the hRpn11 strain lacking UBP6 (primary screen strain), but nontoxic in a strain containing UBP6 and harboring inactivating point mutations in hRpn11 (counterscreening strain) (FIG. 2B). By measuring cell growth in the presence of potential inhibitors using any commercially available plate reader, a high throughput cell-based screen for compounds selectively inhibiting hRpn11 can be enacted.
(§2) Many high throughput screens include a library of chemical compounds having different solubility in different solvents. A common solvent used to solve this issue is dimethyl sulfoxide (“DMSO”). However, DMSO can be toxic to biological cells. Thus, it is advantageous if the biological cell is resistant to levels of DMSO which are used to dissolve compounds in a library. […]
(§3) In a fourth example, yeast strains were evaluated for tolerance of a commonly used solvent in high throughput screens. […] Cell density was monitored over 24 hours as an indicator of cell growth.

[2] = test system: primary screen strain (yeast with hRpn11, UBP6 deleted); test: DMSO tolerance of the primary screen yeast strain, growth in microtiter plates; type: cell-based, Saccharomyces cerevisiae; details: primary screen strain (FIG. 4A); concentrations of DMSO up to 1%; cell density monitored over 24 hours; sextuplicate
Source text: as §1, §2, §3

C[S+](C)[O-] [DMSO, dimethylsulfoxide]
differences in growth rate, time to saturation, or saturation cell density [1]: No statistical differences
differences in growth rate, time to saturation, or saturation cell density [2]: No statistical differences
